Test results reported in PMC6476888, “Design and synthesis of anticancer 1-hydroxynaphthalene-2-carboxanilides with a p53 independent mechanism of action” (Scientific Reports, 2019).
Read-outs that look alike come from different tables or passages of the source.

Columns and labels:
HCT116^+/+ = experiment: Antiproliferative assay (MTS, 72 h) on HCT116 wild type; format: cell-based, human; details: MTS, 72 h incubation, read-out: Activity IC50 HCT116^+/+
Description: (§1) All of the synthesized compounds were tested for their antiproliferative activity against human colon cancer (Table 1). We used both the wild-type and p53-negative cell lines (HCT116^+/+ and HCT116^−/−, respectively). Mutations in the TP53 gene are present in more than 50% of all cancers and often specifically correspond to a difficult therapy, resistance or a bad prognosis[60]–[63]. The active compounds were additionally tested for their cytotoxicity against normal human fibroblasts. We used 5-fluorouracil (5-FLU), doxorubicin (DOX) and CP-31398 as the standards. 5-FLU is one of the first antimetabolites that was dedicated for cancer treatment and is still used for a wide range of cancers including colon carcinoma. Doxorubicin is a DNA topoisomerase II poison with a high intercalating potency, which is able to induce apoptosis through the p53 pathway. Although DOX has been described as being ineffective in some p53 mutants, its level of activity against the p53 null lines is similar. CP-31398, on the other hand, is an experimental drug in the clinical phase and its mechanism of action is through the reactivation some of p53 mutants. Its activity against the p53 null cell lines is greatly diminished and is actually lower than its cytotoxicity.
(§2) The human colon cancer cell line HCT116 wild type was obtained from ATCC and the normal human fibroblast cell lines NHDF were obtained from PromoCell. The human colon cancer cell line HCT116 with a p53 deletion (p53^−/−) was kindly provided by Prof. M. Rusin from the Maria Sklodowska-Curie Memorial Cancer Centre and Institute of Oncology in Gliwice, Poland[89]. The cells were grown as monolayer cultures in Dulbecco’s modified Eagle’s medium with the antibiotic gentamicin (200 μL/100 mL medium) in 75 cm^2 flasks (Nunc). The DMEM for the HCT116 were supplemented with 12% heat-inactivated fetal bovine serum (Sigma-Aldrich, St. Louis, MO, USA) and for NHDF with 15% non-inactivated fetal bovine serum (Sigma Aldrich, St. Louis, MO, USA). The cells were cultured under standard conditions at 37 °C in a humidified atmosphere at 5% CO2.
(§3) The cells were seeded in 96-well plates (Nunc) at a density of 5,000 cells/well (HCT116) and 4,000 cells/well (NHDF) and incubated at 37 °C for 24 h. The assay was performed following a 72 h incubation with varying concentrations of the compounds that were being tested. Then, 20 µL of CellTiter 96® AQueous One Solution-MTS (Promega) was added to each well (with 100 µL DMEM without phenol red) and incubated for 1 h at 37 °C. The optical densities of the samples were analyzed at 490 nm using a Synergy 4 multi-plate reader (BioTek, Winooski, VT, USA). The results are expressed as the percentage of the control and were calculated as the inhibitory concentration (IC50) values (using a GraphPad Prism 7). The IC50 parameter was defined as the compound concentration that was necessary to reduce the proliferation of cells to 50% of the untreated control. Each individual compound was tested in triplicate in a single experiment with each experiment being repeated three or four times.

HCT116^−/− = experiment: Antiproliferative assay (MTS, 72 h) on HCT116 with p53 deletion; format: cell-based, human; details: MTS, 72 h incubation
Description: as §1, §2, §3

NHDF = experiment: Cytotoxicity (MTS, 72 h) against normal human fibroblasts; format: cell-based; details: for IC50: MTS, 72 h incubation
Description: as §1, §2, §3

Row | Structure (SMILES) | IC50 (HCT116^+/+; Homo sapiens, HCT-116) [µM] | melting point [°C] | IC50 (HCT116^−/−; Homo sapiens, HCT-116) [µM] | IC50 (NHDF; Homo sapiens, NHDF) [µM] | IC50 (HCT116^+/+) [µM] | IC50 (HCT116^−/−) [µM] | IC50 (NHDF) [µM] | selectivity index (NHDF; cytotoxicity against the normal cell line vs HCT116)
1 | COc1ccc(OC)c(NC(=O)c2ccc3ccccc3c2O)c1 [2d, N-(2,5-dimethoxyphenyl)−1-hydroxynaphthalene-2-carboxamide] | > 25 | 116 to 119 | > 25 | – | – | – | – | –
2 | COc1cc([N+](=O)[O-])ccc1NC(=O)c1ccc2ccccc2c1O [2g] | 2.62 ± 0.85 | 250 to 253 | 3.73 ± 1.09 | 7.53 ± 2.97 | – | – | – | –
3 | COc1ccc([N+](=O)[O-])cc1NC(=O)c1ccc2ccccc2c1O [2h] | 7.05 ± 1.75 | 215 to 218 | 7.42 ± 2.05 | > 25 | – | – | – | –
4 | COc1ccc(C)cc1NC(=O)c1ccc2ccccc2c1O [2j] | > 25 | 106 to 108 | > 25 | – | – | – | – | –
5 | COc1cccc(C)c1NC(=O)c1ccc2ccccc2c1O [2k] | > 25 | 177 to 179 | > 25 | – | – | – | – | –
6 | Cc1cc(C)c(NC(=O)c2ccc3ccccc3c2O)c(C)c1 [3g] | > 25 | 160 to 163 | > 25 | – | – | – | – | –
7 | COc1ccc(C)c(NC(=O)c2ccc3ccccc3c2O)c1 [3h] | 11.7 ± 3.81 | 128 to 130 | > 25 | > 25 | – | – | – | –
8 | Cc1ccc(C(F)(F)F)cc1NC(=O)c1ccc2ccccc2c1O [3i] | 8.41 ± 1.07 | 140 to 143 | 5.08 ± 1.23 | > 25 | – | – | – | –
9 | O=C(Nc1ccc(F)cc1F)c1ccc2ccccc2c1O [4d] | 6.55 ± 0.83 | 185 to 187 | 11.4 ± 1.92 | > 25 | – | – | – | –
10 | O=C(Nc1cc(F)ccc1F)c1ccc2ccccc2c1O [4e] | 4.76 ± 0.76 | 153 to 155 | 15.1 ± 6.75 | > 25 | – | – | – | –
11 | O=C(Nc1c(F)cccc1F)c1ccc2ccccc2c1O [4f] | > 25 | 197 to 200 | > 25 | – | – | – | – | –
12 | O=C(Nc1ccc(F)c(F)c1)c1ccc2ccccc2c1O [4g] | 3.04 ± 0.06 | 153 to 156 | 5.88 ± 0.5 | – | – | – | – | –
13 | O=C(Nc1cc(F)cc(F)c1)c1ccc2ccccc2c1O [4h] | 1.79 ± 0.44 | 199 to 200 | 2.24 ± 0.3 | 9.87 ± 0.66 | – | – | – | –
14 | O=C(Nc1ccc(F)c(F)c1F)c1ccc2ccccc2c1O [4i] | 4.28 ± 0.66 | 173 to 175 | 4.43 ± 0.66 | > 25 | – | – | – | –
15 | O=C(Nc1cc(F)c(F)cc1F)c1ccc2ccccc2c1O [4j] | 1.87 ± 0.35 | 201 to 204 | 4.75 ± 0.05 | 24.52 ± 0.03 | – | – | – | –
16 | O=C(Nc1c(F)cc(F)cc1F)c1ccc2ccccc2c1O [4k] | > 25 | 180 to 184 | > 25 | – | – | – | – | –
17 | O=C(Nc1cc(F)c(F)c(F)c1)c1ccc2ccccc2c1O [4l] | 1.19 ± 0.31 | 242 to 247 | 1.42 ± 0.25 | 10 ± 0.54 | – | – | – | –
18 | O=C(Nc1c(F)c(F)cc(F)c1F)c1ccc2ccccc2c1O [4m] | 12 ± 0.92 | 160 to 163 | > 25 | > 25 | – | – | – | –

Row | Structure (SMILES) | IC50 (HCT116^+/+; Homo sapiens, HCT-116) [µM] | melting point [°C] | IC50 (HCT116^−/−; Homo sapiens, HCT-116) [µM] | IC50 (NHDF; Homo sapiens, NHDF) [µM] | IC50 (HCT116^+/+) [µM] | IC50 (HCT116^−/−) [µM] | IC50 (NHDF) [µM] | selectivity index (NHDF; cytotoxicity against the normal cell line vs HCT116)
19 | O=C(Nc1c(F)c(F)c(F)c(F)c1F)c1ccc2ccccc2c1O [4n] | 11.6 ± 0.74 | 230 to 234 | 17.5 ± 0.76 | > 25 | – | – | – | –
20 | O=C(Nc1c(Cl)cc(C(F)(F)F)cc1Cl)c1ccc2ccccc2c1O [5v] | > 25 | 191 to 194 | > 25 | – | – | – | – | –
21 | O=C(Nc1ccc(Cl)cc1Br)c1ccc2ccccc2c1O [6h] | – | – | – | – | 9.54 ± 2.71 | 13.2 ± 2.3 | > 25 | –
22 | O=C(Nc1cc(C(F)(F)F)ccc1Br)c1ccc2ccccc2c1O [6k] | – | – | – | – | 8.18 ± 1.72 | 7.15 ± 1.96 | 22.2 ± 0.83 | –
23 | O=C(Nc1c(Br)cc(F)c(Cl)c1Br)c1ccc2ccccc2c1O [6m] | > 25 | 244 to 247 | > 25 | – | – | – | – | –
24 | O=C(Nc1cccc(C(F)(F)F)c1)c1ccc2ccccc2c1O [7b] | – | – | – | – | 6.25 ± 0.47 | 1.39 ± 0.29 | > 25 | –
25 | O=C(Nc1ccc(C(F)(F)F)cc1)c1ccc2ccccc2c1O [7c] | – | – | – | – | 4.31 ± 0.51 | 1.07 ± 0.26 | 16.6 ± 2.17 | –
26 | O=C(Nc1ccc(C(F)(F)F)cc1C(F)(F)F)c1ccc2ccccc2c1O [7d] | – | – | – | – | 11.3 ± 1.31 | 8.69 ± 1.02 | > 25 | –
27 | O=C(Nc1cc(C(F)(F)F)ccc1C(F)(F)F)c1ccc2ccccc2c1O [7e] | – | – | – | – | 4.44 ± 1.16 | 8.53 ± 3.37 | 22.9 ± 2.1 | –
28 | O=C(Nc1ccc(F)cc1C(F)(F)F)c1ccc2ccccc2c1O [7g] | > 25 | 135 to 137 | > 25 | – | – | – | – | –
29 | O=C(Nc1ccc([N+](=O)[O-])cc1C(F)(F)F)c1ccc2ccccc2c1O [7j] | – | – | – | – | 2.04 ± 0.71 | 4.74 ± 1.68 | 12.6 ± 1.32 | –
30 | COc1ccc(NC(=O)c2ccc3ccccc3c2O)cc1C(F)(F)F [7k] | > 25 | 183 to 186 | > 25 | – | – | – | – | –
31 | Cc1ccc(NC(=O)c2ccc3ccccc3c2O)cc1C(F)(F)F [7l] | > 25 | 168 to 171 | > 25 | – | – | – | – | –
32 | O=C(Nc1ccc([N+](=O)[O-])c(C(F)(F)F)c1)c1ccc2ccccc2c1O [7p] | – | – | – | – | 1.64 ± 0.47 | 1.39 ± 0.44 | 9.68 ± 1.49 | –
33 | O=C(Nc1ccccc1[N+](=O)[O-])c1ccc2ccccc2c1O [8a] | – | – | – | – | 23.3 ± 3.77 | > 25 | 22.7 ± 2.71 | –
34 | O=C(Nc1cccc([N+](=O)[O-])c1)c1ccc2ccccc2c1O [8b] | – | – | – | – | 6.82 ± 1.17 | 3.1 ± 0.63 | > 25 | –
35 | O=C(Nc1ccc([N+](=O)[O-])cc1)c1ccc2ccccc2c1O [8c] | – | – | – | – | 0.41 ± 0.05 | 0.69 ± 0.09 | 12.3 ± 1.49 | 30
